According to US20050148553A1, “Use of tigecycline, alone, or in combination with rifampin to treat osteomyelitis and/or septic arthritis” (priority 2003, published 2005):

Assay: Whole body autoradiography after 30-minute 3 mg/kg IV infusion of [^14C]-tigecycline
Format: in vivo, Sprague-Dawley rats
Method: Male Sprague-Dawley and Long-Evans rats were obtained from Charles River Breeding Laboratories, Raleigh, N.C., and were quarantined for at least one week prior to the start of the study. […] The dosing solution was diluted and radioassayed directly in Ultima Gold scintillation counting cocktail (Packard Inc.). […] All pumps were calibrated prior to the administration of the compound. Rats were anesthetized with isoflurane prior to cardiac puncture exsanguination at the prescribed times after dosing. […] Control whole blood was collected from male Sprague-Dawley rats into tubes containing sodium heparin. Pooled blood was used to prepare the calibration standards and quality control samples. The standards were used to construct the standard curve for the quantification of radiolabeled drug distribution in tissues of whole blood cryosections. The quality controls, which were embedded in the same CMC block with each rat, were used for assessing intra- and inter-section variation in the thickness of rat whole-body cryosections. […] Immediately following euthanasia, each rat was totally immersed in a bath of hexane and dry ice (−75° C.) until frozen. Each carcass was dried and stored at −30° C. until embedded. […] Each frozen rat was sagitally sectioned at −20° C. A sufficient number of sections were collected to ensure sampling of all tissues of interest. The sections were dehydrated overnight in a cryochamber and then rapidly transferred to a dessicator containing CaSO4 to prevent condensation of atmospheric moisture while equilibrating to room temperature. The sections were mounted on cardboard and labeled with [^14C]-labeled black ink with a unique identification number. […] A small piece of Scotch tape was placed over the dried radioactive ink to prevent the contamination of the storage phosphor screens. Phosphor imaging plates, BAS-SR 2025 (Fuji Photo Film Co., Japan) were exposed to bright visible light for 20 minutes using an IP eraser (Raytest, USA Inc., New Castle, Del.) to remove background radiation. Sections and calibration blood standards were concurrently placed in direct contact with Ips and exposed for 7 days. All sections were stored at room temperature in a lead shielding box to minimize background levels. Phosphor images were generated using a Fujifilm BAS-5000 Bio-Imaging Analyzer and quantitated by MCID M2 Software, version 3.2 (Imaging Research Inc., St. Catherines, Ontario, Canada). The STDs and QCs were analyzed using the circular sampling tool in the MCID software program. Areas of interest in whole-body sections were manually outlined with the regional sampling tool to generate count data. Radioactive concentrations in select tissues were determined by digital analysis of the resulting autoradiograms on the basis of a calibration curve. […] The linear regression curve was then used to determine the concentration of unknown radioactivity of study samples. […] Blood samples were combusted using a Model 307 sample oxidizer (Packard Instrument Company). […] Research Triangle Park, N.C.), which applies a model-independent approach and standard procedures as described in Gibaldi and Perrier. Gibaldi, Pharmacokinetics, 1982. […] For IV infusion dosing, C30 min was the concentration at 30 minutes, the first sampling time point. The maximum plasma concentration (Cmax) and the corresponding time of peak concentration following IV administration were obtained directly by numerical inspection from the individual concentration-time data. The terminal half-life was calculated by the ratio of ln2/λz where λz is derived from the terminal slope of the concentration time curve. The area under the plasma concentration versus time curve from zero to infinity was calculated using the trapezoidal rule, where Clast is the last measurable plasma concentration. […]

CN(C)c1cc(NC(=O)CNC(C)(C)C)c(O)c2c1C[C@H]1C[C@H]3[C@H](N(C)C)C(O)=C(C(N)=O)C(=O)[C@@]3(O)C(O)=C1C2=O [[^14C]-Tigecycline]
Mean concentration of total radioactivity (Liver, 24 Hrs): 160 ng equiv./g
Tissue:Plasma Ratio (Liver, 24 Hrs): 10.8
Mean concentration of total radioactivity (Liver, 72 Hrs): 22.7 ng equiv./g
Tissue:Plasma Ratio (Liver, 72 Hrs): 5.26
Mean concentration of total radioactivity (Liver, 168 Hrs): 13.3 ng equiv./g
Mean concentration of total radioactivity (Liver, 336 Hrs): <5.10 ng equiv./g
AUC (Liver, first AUC column): 52676 Ng eq hr/g
Mean concentration of total radioactivity (Lung, 0.5 Hrs): 2981 ng equiv./g
Tissue:Plasma Ratio (Lung, 0.5 Hrs): 3.33
Mean concentration of total radioactivity (Lung, 8.5 Hrs): 496 ng equiv./g
Tissue:Plasma Ratio (Lung, 8.5 Hrs): 0.984
Mean concentration of total radioactivity (Lung, 24 Hrs): 73.1 ng equiv./g
Tissue:Plasma Ratio (Lung, 24 Hrs): 4.96
Mean concentration of total radioactivity (Lung, 72 Hrs): 13.5 ng equiv./g
Tissue:Plasma Ratio (Lung, 72 Hrs): 3.13
Mean concentration of total radioactivity (Lung, 168 Hrs): <5.10 ng equiv./g
Mean concentration of total radioactivity (Lung, 336 Hrs): <5.10 ng equiv./g
AUC (Lung, first AUC column): 21263 Ng eq hr/g
AUC (Lymph Node): 37010 Ng eq hr/g
Mean concentration of total radioactivity (Lymph Node, 0.5 Hrs): 3473 ng equiv./g
Tissue:Plasma Ratio (Lymph Node, 0.5 Hrs): 3.88
Mean concentration of total radioactivity (Lymph Node, 8.5 Hrs): 1276 ng equiv./g
Tissue:Plasma Ratio (Lymph Node, 8.5 Hrs): 2.53
Mean concentration of total radioactivity (Lymph Node, 24 Hrs): 180 ng equiv./g
Tissue:Plasma Ratio (Lymph Node, 24 Hrs): 12.2
Mean concentration of total radioactivity (Lymph Node, 72 Hrs): 29.1 ng equiv./g
Tissue:Plasma Ratio (Lymph Node, 72 Hrs): 6.75
Mean concentration of total radioactivity (Lymph Node, 168 Hrs): <5.10 ng equiv./g
Mean concentration of total radioactivity (Lymph Node, 336 Hrs): <5.10 ng equiv./g
AUC (Lymph Node, first AUC column): 36478 Ng eq hr/g
AUC (Muscle): 34910 Ng eq hr/g
Mean concentration of total radioactivity (Muscle, 0.5 Hrs): 2260 ng equiv./g
Tissue:Plasma Ratio (Muscle, 0.5 Hrs): 2.52
Mean concentration of total radioactivity (Muscle, 8.5 Hrs): 1863 ng equiv./g
Tissue:Plasma Ratio (Muscle, 8.5 Hrs): 3.70
Mean concentration of total radioactivity (Muscle, 24 Hrs): 85.8 ng equiv./g
Tissue:Plasma Ratio (Muscle, 24 Hrs): 5.801
Mean concentration of total radioactivity (Muscle, 72 Hrs): 6.24 ng equiv./g
Tissue:Plasma Ratio (Muscle, 72 Hrs): 1.45
Mean concentration of total radioactivity (Muscle, 168 Hrs): <5.10 ng equiv./g
Mean concentration of total radioactivity (Muscle, 336 Hrs): <5.10 ng equiv./g
AUC (Muscle, first AUC column): 34833 Ng eq hr/g
AUC (Pancreas): 33014 Ng eq hr/g
Mean concentration of total radioactivity (Pancreas, 0.5 Hrs): 4437 ng equiv./g
Tissue:Plasma Ratio (Pancreas, 0.5 Hrs): 4.96
Mean concentration of total radioactivity (Pancreas, 8.5 Hrs): 971 ng equiv./g
Tissue:Plasma Ratio (Pancreas, 8.5 Hrs): 1.93
Mean concentration of total radioactivity (Pancreas, 24 Hrs): 70.0 ng equiv./g
Tissue:Plasma Ratio (Pancreas, 24 Hrs): 4.75
Mean concentration of total radioactivity (Pancreas, 72 Hrs): 7.41 ng equiv./g
Tissue:Plasma Ratio (Pancreas, 72 Hrs): 1.72
Mean concentration of total radioactivity (Pancreas, 168 Hrs): <5.10 ng equiv./g
Mean concentration of total radioactivity (Pancreas, 336 Hrs): <5.10 ng equiv./g
AUC (Pancreas, first AUC column): 32908 Ng eq hr/g
AUC (Pituitary): 45164 Ng eq hr/g
Mean concentration of total radioactivity (Pituitary, 0.5 Hrs): 3693 ng equiv./g
Tissue:Plasma Ratio (Pituitary, 0.5 Hrs): 4.13
Mean concentration of total radioactivity (Pituitary, 8.5 Hrs): 2014 ng equiv./g
Tissue:Plasma Ratio (Pituitary, 8.5 Hrs): 4.00
Tissue:Plasma Ratio (Pituitary, 24 Hrs): 9.79
Tissue:Plasma Ratio (Pituitary, 72 Hrs): 4.36
AUC (Pituitary, first AUC column): 44882 Ng eq hr/g
AUC (Plasma): 10652 Ng eq hr/g
Tissue:Plasma Ratio (Plasma, 0.5 Hrs): 1.00
Tissue:Plasma Ratio (Plasma, 8.5 Hrs): 1.00
Tissue:Plasma Ratio (Plasma, 24 Hrs): 1.00
Tissue:Plasma Ratio (Plasma, 72 Hrs): 1.00
AUC (Plasma, first AUC column): 10643 Ng eq hr/g
AUC (Salivary Gland): 110979 Ng eq hr/g
Tissue:Plasma Ratio (Salivary Gland, 0.5 Hrs): 6.45
Tissue:Plasma Ratio (Salivary Gland, 8.5 Hrs): 12.53
Tissue:Plasma Ratio (Salivary Gland, 24 Hrs): 20.3
Tissue:Plasma Ratio (Salivary Gland, 72 Hrs): 7.32
AUC (Salivary Gland, first AUC column): 110558 Ng eq hr/g
AUC (Skin): 36471 Ng eq hr/g
Tissue:Plasma Ratio (Skin, 0.5 Hrs): 2.15
Tissue:Plasma Ratio (Skin, 8.5 Hrs): 1.14
Tissue:Plasma Ratio (Skin, 24 Hrs): 16.9
Tissue:Plasma Ratio (Skin, 72 Hrs): 19.3
AUC (Skin, first AUC column): 31819 Ng eq hr/g
AUC (Spleen): 70522 Ng eq hr/g
Cmax (Spleen): 6627 Ng equiv/g
Tissue:Plasma Ratio (Spleen, 0.5 Hrs): 7.40
Tissue:Plasma Ratio (Spleen, 8.5 Hrs): 3.36
Tissue:Plasma Ratio (Spleen, 24 Hrs): 32.3
Tissue:Plasma Ratio (Spleen, 72 Hrs): 16.7
AUC (Spleen, first AUC column): 69638 Ng eq hr/g
Tissue:Plasma Ratio (Testes, 0.5 Hrs): 0.388
Tissue:Plasma Ratio (Testes, 8.5 Hrs): 0.716
Tissue:Plasma Ratio (Testes, 24 Hrs): 8.08
Tissue:Plasma Ratio (Testes, 72 Hrs): 3.80
AUC (Testes, first AUC column): 9975 Ng eq hr/g
AUC (Testes, second AUC column): 10323 Ng eq hr/g
AUC (Testes, second AUC column, listed as [^14C]-tigecycline): 10303 Ng eq hr/g
AUC (Thymus): 35430 Ng eq hr/g
Tissue:Plasma Ratio (Thymus, 0.5 Hrs): 2.82
Tissue:Plasma Ratio (Thymus, 8.5 Hrs): 3.16
Tissue:Plasma Ratio (Thymus, 24 Hrs): 10.7
Tissue:Plasma Ratio (Thymus, 72 Hrs): 3.55
AUC (Thymus, first AUC column): 35204 Ng eq hr/g
AUC (Thyroid): 330047 Ng eq hr/g
Tissue:Plasma Ratio (Thyroid, 0.5 Hrs): 3.34
Tissue:Plasma Ratio (Thyroid, 8.5 Hrs): 3.50
Tissue:Plasma Ratio (Thyroid, 24 Hrs): 24.0
Tissue:Plasma Ratio (Thyroid, 72 Hrs): 56.0
Tissue:Plasma Ratio (Thyroid, 72 Hrs, listed as [^14C]-tigecycline): 56
AUC (Thyroid, first AUC column): 113022 Ng eq hr/g
AUC (lung): 21523 Ng eq hr/g
elimination half-lives across tissues (male, Sprague-Dawley, rat, in vivo): 5 to 217 h
